The record followed here is PMC10350920, “Development of a 2,4-Diaminothiazole Series for the Treatment of Human African Trypanosomiasis Highlights the Importance of Static–Cidal Screening of Analogues” (Journal of Medicinal Chemistry, 2023).

Data set [1] relates to BSF T. b. brucei “single marker” S427. The experiment in a line: Drug sensitivity assay with bloodstream-form T. brucei. It counts as cell-based. The conditions noted are these: for EC50: Trypanosoma brucei, mean values, number of replicates in parentheses. The protocol:
(§1) Drug sensitivity assays with BSF T. b. brucei “single marker” S427 and human MRC-5 fibroblasts were conducted as previously described.[43]

The nature of data set [2]: Equilibrium dialysis, free fraction in plasma. It counts as in vitro ADME, mouse. The conditions noted are these: CD1, mouse, plasma, pH 7.4; matrix not given; read-out: Fu (free fraction). The protocol:
In brief, a 96-well equilibrium dialysis apparatus was used to determine the free fraction in plasma and the brain (HT Dialysis LLC, Gales Ferry, CT). Isotonic buffer was prepared using 8.69 g of Na2HPO4, 1.9 g of KH2PO4, and 4.11 g of NaCl dissolved in 1 L of Milli-Q water, and the pH was adjusted to 7.4. Artificial CSF was prepared using 3.652 g of NaCl, 93.2 mg of KCl, 119.96 mg of MgCl2, 92.61 mg of CaCl2, and 268 mg of Na2HPO4 heptahydrate dissolved in 0.5 L of water, and the pH was adjusted to 7.4. Membranes [12–14 (plasma) or 6–9 (brain) kDA cutoff] were conditioned in deionized water for 60 min, followed by conditioning in 80:20 deionized water/ethanol for 20 min, and then rinsed in isotonic buffer (plasma) or […] (brain) before use. Female CD1 mouse plasma was defrosted and centrifuged for 10 min at 3000 rpm (Allegra X12-R, Beckman Coulter, USA). The control mouse brain was homogenized in two volumes of artificial CSF in a Covaris S2 acoustic homogenizer. Plasma or brain homogenate was spiked with the test compound (10 μg mL^–1), and 150 μL aliquots (n = 3 replicate determinations) were loaded into the 96-well equilibrium dialysis plate. Dialysis versus 150 μL of isotonic buffer (plasma) or artificial CSF (brain) was carried out for 5 h in a temperature-controlled incubator at 37 °C (Barworld Scientific Ltd, UK) using an orbital microplate shaker at 125 rpm (Barworld Scientific Ltd, UK). At the end of the incubation period, aliquots of plasma/homogenized brain or buffer were transferred to a clean 96-well plate, and the composition in each well was balanced with control fluid, such that the volume of buffer to the matrix was the same. Sample extraction was performed by the addition of 400 μL of acetonitrile containing an appropriate internal standard. Samples were allowed to mix for 1 min and then centrifuged at 3000 rpm in 96-well blocks for 10 min (Allegra X12-R, Beckman Coulter, USA). All samples were analyzed by means of UPLC/MS/MS on a Quattro Premier XE or Micro TQs mass spectrometer (Waters Corporation, USA). The unbound fraction was determined as the ratio of the peak area in the buffer to that in the matrix.
For orientation: Equilibrium dialysis compares concentrations on both sides of a semipermeable membrane.

Data set [3] can be described thus: Mouse liver microsomal intrinsic clearance. It is filed as in vitro ADME. The protocol:
Test compounds (0.5 μM) were incubated with female CD1 mouse liver microsomes (Xenotech LLC; 0.5 mg mL^–1 50 mM potassium phosphate buffer, pH 7.4), and the reaction started with the addition of excess NADPH (8 mg mL^–1 50 mM potassium phosphate buffer, pH 7.4). Immediately, at 0 min, and then at 3, 6, 9, 15, and 30 min, an aliquot (50 μL) of the incubation mixture was removed and mixed with acetonitrile (100 μL) to stop the reaction. The internal standard was added to all samples, the samples were centrifuged to sediment the precipitated protein, and the plates were then sealed prior to UPLC–MS/MS analysis using a Quattro Premier XE (Waters Corporation, USA). XLfit (IDBS, UK) was used to calculate the exponential decay and consequently the rate constant (k) from the ratio of the peak area of the test compound to the internal standard at each time point. The rate of intrinsic clearance (CLint) of each test compound was then calculated using the following calculation [drawing 3] where V (mL mg^–1 protein) is the incubation volume mg^–1 protein added and the microsomal protein yield is taken as 52.5 mg protein g^–1 liver. Verapamil (0.5 μM) was used as a positive control to confirm acceptable assay performance.
For orientation: Liver microsomes are vesicles of endoplasmic reticulum, rich in cytochrome P450 enzymes.

The nature of data set [4]: Mammalian cell counter screen (MRC-5). It is filed as cell-based, human. Particulars: human, MRC-5 fibroblasts; mean values; number of replicates in parentheses. The protocol: as §1
The test system of the next data set is human MRC-5 fibroblasts. The experiment in a line: Mammalian cell counter screen (MRC-5). It is filed as cell-based. Particulars: for SI: selectivity index (EC50 MRC5/EC50 T. brucei). The protocol: as §1
A general note: The purpose of a counterscreen is to sort out artefacts and off-target activity.

Data set [5] is described as follows: Mouse brain penetration (brain:blood ratio). It is filed as in vivo, female NMRI mice. Particulars: female, NMRI, mouse, brain and blood, 10 mg kg^–1; mice, bolus of test compound, total compound; read-out: brain/blood (B/B) ratio. The protocol:
Medicines for HAT are required to treat both acute and chronic infections, where parasites pass through the blood/brain barrier and enter the CNS. With this in mind, mice were dosed with an […] bolus of our test compounds, and compound concentrations in blood and brain were determined by UPLC–MS/MS. […] The brain fraction unbound was 0.0063 for 16 and 0.0313 for 38. Brain penetration of the series as a whole tracked with the generally accepted rules of CNS penetration, with a lower topological PSA (TPSA) and molecular weight compounds having an increased B/B ratio (Table S2 and Figure S1). However, the link between log P and the B/B ratio was slightly less convincing. […] This difference could be explained by 18 being a substrate for the P-glycoprotein efflux pump.
Each compound was dosed as an IV bolus at 10 mg kg^–1 dissolved in 15% solutol/Milli-Q (dose volume 10 mL kg^–1) to female NMRI mice (n = 3). At 30 min following the IV bolus of the test compound, mice (n = 3/time point) were placed under terminal anesthesia with isoflurane. A blood sample was taken by cardiac puncture and added to two volumes of distilled water, and the brain was removed. […] For each mouse at each time point, the concentration in the brain (ng g^–1) was divided by the concentration in blood (ng mL^–1) to give a brain: blood ratio.

A short description of data set [6]: Human microsomal intrinsic clearance. It is filed as in vitro ADME. The conditions noted are these: second value of mouse/human cell.
Data set [7] can be described thus: Rat microsomal intrinsic clearance. It counts as in vitro ADME. The conditions noted are these: second value of mouse/rat cell.

In general, EC50 refers to the concentration giving half of the maximal effect. For the molecule `Nc1nc(N[C@H]2CC[C@H](O)CC2)sc1C(=O)c1c(F)cccc1F` [Compound 16A], the concentration giving a half-maximal response (EC50) in data set [1] amounted to 360 nM. Further, in data set [2], the fraction unbound at 5 h, 10 μg mL^–1 was determined as 0.39.

With `Nc1nc(NC2CCCC(O)C2)sc1C(=O)c1c(F)cccc1F` (centres unmarked) [Compound 16B], the EC50 in data set [1] was 948 nM. For the same molecule, the “CLint (mouse)” value in data set [3] was 1.8 mL·min/g. In data set [2], the fraction unbound at 5 h, 10 μg mL^–1 came out at 0.22.

`CC(C)C(=O)c1sc(NC2CCCCC2)nc1N` [Compound 18, 1-(4-Amino-2-(cyclohexylamino)thiazol-5-yl)-2-methylpropan-1-one]: the results for the EC50 in data set [1] and in data set [4] were 2400 nM and 10000 nM, respectively. The SI with human MRC-5 fibroblasts turned out to be 4. Further, the “CLint (mouse)” value in data set [3] is 0.5 mL·min/g. Besides, in data set [5], the Kp at 30 min worked out at 0.06.

Consider `Nc1nc(Nc2ccccc2)sc1C(=O)c1ccccc1` [Compound 34, (4-Amino-2-(phenylamino)thiazol-5-yl)(phenyl)methanone], for which the EC50 in data set [1] came to 160 nM. Further, in data set [4], the EC50 is 11000 nM. For the same molecule, in the data set on human MRC-5 fibroblasts, the “selectivity over MRC-5 cell line” value is given as about 100 fold and the SI was found to be 69. In addition, the “CLint (mouse)” value in data set [3] was 12 mL·min/g. The “CLint (human)” value in data set [6] is under 0.5 mL·min/g.

As to `CC(C)CC(=O)c1sc(Nc2ccc(F)c(F)c2)nc1N` [Compound 37, 1-(4-Amino-2-((3,4-difluorophenyl)amino)thiazol-5-yl)-3-methylbutan-1-one], the EC50 in data set [1] is 200 nM; in data set [4], over 50000 nM. For the same molecule, in the data set on human MRC-5 fibroblasts, the SI is over 250. The “CLint (mouse)” value in data set [3] stood at 5.9 mL·min/g. In addition, the “CLint (human)” value in data set [6] is 3.2 mL·min/g. Moreover, the Kp at 30 min in data set [5] was 4.7.

Regarding `CC(OCC(=O)c1sc(Nc2ccc(Cl)cc2)nc1N)C(F)(F)F` (centres unmarked) [Compound 51, 1-(4-Amino-2-((4-chlorophenyl)amino)thiazol-5-yl)-2-((1,1,1-trifluoropropan-2-yl)oxy)ethanone], the EC50 is 8 nM in data set [1] and over 50000 nM in data set [4]. The molecule further had an SI in the data set with human MRC-5 fibroblasts of 6250. Moreover, the “CLint (mouse)” value in data set [3] was determined as 5.3 mL·min/g. In data set [7], the “CLint (rat)” value was found to be 1.7 mL·min/g. The Kp at 30 min in data set [5] is 0.9.

With `Nc1nc(Nc2ccc(F)c(F)c2)sc1C(=O)CN1CCCC1` [Compound 58, 1-(4-Amino-2-((3,4-difluorophenyl)amino)thiazol-5-yl)-2-(pyrrolidin-1-yl)ethanone], the EC50 was 90 nM in data set [1] and 48000 nM in data set [4]. The molecule also had an SI in the data set with human MRC-5 fibroblasts of 533. For the same molecule, in data set [3], the “CLint (mouse)” value came to 2.1 mL·min/g. In data set [7], the “CLint (rat)” value was 2.2 mL·min/g.

As for `CC1CCCN1CC(=O)c1sc(Nc2ccc(F)c(F)c2)nc1N` (centres unmarked) [Compound 59, 1-(4-Amino-2-((3,4-difluorophenyl)amino)thiazol-5-yl)-2-(2-methylpyrrolidin-1-yl)ethanone], the results for the EC50 in data set [1] and in data set [4] were 50 nM and over 50000 nM, respectively. Moreover, in the data set on human MRC-5 fibroblasts, the SI is reported as 1000. Besides, the “CLint (mouse)” value in data set [3] came out at 5.2 mL·min/g. For the same molecule, the “CLint (rat)” value in data set [7] is 3.1 mL·min/g.

For `Nc1nc(Nc2ccc(F)c(F)c2)sc1C(=O)CN1CCCC1C(F)(F)F` (centres unmarked) [Compound 60, 1-(4-Amino-2-((3,4-difluorophenyl)amino)thiazol-5-yl)-2-(2-(trifluoromethyl)pyrrolidin-1-yl)ethanone], the EC50 in data set [1] is 20 nM; in data set [4], 32000 nM. Besides, in the data set with human MRC-5 fibroblasts, the SI is on record as 1600. For the same molecule, the “CLint (mouse)” value in data set [3] was found to be 26 mL·min/g. In addition, the “CLint (rat)” value in data set [7] was 10 mL·min/g.

In the case of `Nc1nc(Nc2ccc(F)c(F)c2)sc1C(=O)CN1CCCCC1` [Compound 61, 1-(4-Amino-2-((3,4-difluorophenyl)amino)thiazol-5-yl)-2-(piperidin-1-yl)ethanone], the EC50 was found to be 60 nM in data set [1] and 49000 nM in data set [4]. Moreover, the SI in the data set on human MRC-5 fibroblasts is 816. For the same molecule, the “CLint (mouse)” value in data set [3] amounted to 7.7 mL·min/g. In data set [7], the “CLint (rat)” value was determined as 6.7 mL·min/g.

Take `Nc1nc(Nc2ccc(F)c(F)c2)sc1C(=O)CCN1CCOCC1` [Compound 64, 1-(4-Amino-2-((3,4-difluorophenyl)amino)thiazol-5-yl)-3-morpholinopropan-1-one]: the “reduction (loss, drop off) in potency against T. brucei relative to parent analogue” value in data set [1] (SAR comparison) was over 110 fold. Besides, the EC50 in data set [1] came to 5000 nM; in data set [4], 29000 nM. This molecule also came in with an SI in the data set with human MRC-5 fibroblasts of 6. For the same molecule, in data set [3], the “CLint (mouse)” value was 1.2 mL·min/g. Moreover, the “CLint (rat)” value in data set [7] came to 8.3 mL·min/g.

In the case of `Nc1nc(Nc2ccc(F)c(F)c2)sc1C(=O)CN1C[C@@H]2C[C@H]1CO2` [Compound 65, 1-(4-Amino-2-((3,4-difluorophenyl)amino)thiazol-5-yl)-2-((1S,4S)-2-oxa-5-azabicyclo[2.2.1]heptan-5-yl)ethanone], the results for the EC50 in data set [1] and in data set [4] were 40 nM and over 50000 nM, respectively. The SI with human MRC-5 fibroblasts is recorded as 1250. In addition, the “CLint (mouse)” value in data set [3] worked out at 4.1 mL·min/g. Also, in data set [7], the “CLint (rat)” value amounted to 4.9 mL·min/g.

On to `Nc1nc(Nc2ccc(F)c(F)c2)sc1C(=O)CN1C[C@H]2CC[C@@H](C1)O2` [Compound 66, 1-(4-Amino-2-((3,4-difluorophenyl)amino)thiazol-5-yl)-2-((1R,5S)-8-oxa-3-azabicyclo[3.2.1]octan-3-yl)ethanone], for which the EC50 was 110 nM in data set [1] and over 50000 nM in data set [4]. The SI with human MRC-5 fibroblasts is reported as 455. Also, the “CLint (mouse)” value in data set [3] worked out at 8.8 mL·min/g. Further, the “CLint (rat)” value in data set [7] is 15.1 mL·min/g.

Turning to `Nc1nc(Nc2ccc(F)c(F)c2)sc1C(=O)CN1CCCC(F)(F)C1` [Compound 67, 1-(4-Amino-2-((3,4-difluorophenyl)amino)thiazol-5-yl)-2-(3,3-difluoropiperidin-1-yl)ethanone], the values for the EC50 in data set [1] and in data set [4] were 20 nM and 5000 nM, respectively. This molecule also displayed an SI in the data set on human MRC-5 fibroblasts of 250. Further, the “CLint (mouse)” value in data set [3] came to 33 mL·min/g. Moreover, the “CLint (rat)” value in data set [7] came to 20 mL·min/g.

On to `Nc1nc(Nc2ccc(F)c(F)c2)sc1C(=O)CN1CCC(F)(F)CC1` [Compound 68, 1-(4-Amino-2-((3,4-difluorophenyl)amino)thiazol-5-yl)-2-(4,4-difluoropiperidin-1-yl)ethanone], for which the EC50 in data set [1] was found to be 20 nM; in data set [4], 47000 nM. Besides, in the data set with human MRC-5 fibroblasts, the SI was found to be 2350. In data set [3], the “CLint (mouse)” value turned out to be 9.3 mL·min/g. For the same molecule, the “CLint (rat)” value in data set [7] is 11 mL·min/g.
